Test results taken from PMC10396955, “2-Oxabicyclo[2.1.1]hexanes as saturated bioisosteres of the ortho-substituted phenyl ring” (Nature Chemistry, 2023).
Converted amounts (≈) assume the structure as drawn. Read-outs that look alike come from different tables or passages of the source.

How the values were obtained:
[1] = tested on: Fusarium verticillioides; assay: Antifungal susceptibility testing (MIC, CLSI M38-A2 microdilution); format: cell-based
Method: (§1) page 252: Antifungal susceptibility testing (determination of MIC values) The antifungal susceptibility tests were performed according to the Clinical and Laboratory Standards Institute (CLSI) […]-A2 protocol for mycelial fungi (1). Stock solutions were prepared by dissolving an appropriate amount of testing compounds in DMSO. Solutions of test compounds were added to the wells of a 96-well polystyrene microtiter plate (Colstar, USA) in the concentration range from 0.5 to 0.001 mg/mL. Mycelium growth was monitored photometrically at 490 nm by measuring the optical density of each well. Measurements were carried out two times: immediately after adding all components (RPMI 1640 broth, conidial suspension, test compound solutions) and after incubation plate at 26 °C for 48 h (2). MICs were the lowest testing compound concentrations that produced partial growth inhibition (50% of optical density relative to the control without testing compounds). The tests were performed in triplicate Results : Table S6. The MIC values of Fluxapyroxad , Boscalid , and their saturated analogues against Fusarium oxysporum , and Fusarium verticillioides Antifungal compaunds MIC, mg/mL Fusarium oxysporum Fusarium verticillioides Fluxapyroxad -* 0.250 Analogue (±)- 28 0.125 0.125 […] of 0.063 mg/mL. […]

[2] = tested on: Fusarium oxysporum; assay: as above; format: cell-based
Method: as §1

[3] = physchem; format: physicochemical
Method: Determination of Distribution Coefficient (LogD, pH 7.4) […]
n-octanol – phosphate buffered saline (PBS), pH 7.4. Distribution coefficient (or LogD) is a […]
Phosphate buffered saline, tablet (Sigma-Aldrich, USA; Cat # P4417)
Acetic acid (Enamine, Ukraine.)
DMSO stock solutions of the test compounds 10mM
Gradient HPLC system (Shimadzu, Japan)
MTR22 Multi Mix Rotator (UNICO, USA)
Laboratory Centrifuge, Sigma 4-15C, Qiagen (SIGMA GmbH, Germany) […]
allowed to mix in a rotator for 1 h at 30 rpm. Phase separation was assured by centrifugation for […]
dilution. The samples (both phases) were analyzed using a HPLC system coupled with a tandem mass spectrometer. Mebendazole was used as a reference compound. […]
where: SO – peak area of the analyte in octanol phase
S P – peak area of the analyte in PBS buffer do – dilution coefficient for octanol phase dp – dilution coefficient for aqueous phase

[4] = Kinetic solubility in phosphate-buffered saline, pH 7.4; format: physicochemical; details: for solubility at 2 h: phosphate-buffered saline, 25 °C, pH 7.4, aqueous buffer, kinetic from dmso stock
Method: Analysis of Aqueous Solubility […]
compound (Ondansetron) were assessed for kinetic solubility in phosphate-buffered saline, pH […]
Phosphate buffered saline, pH 7.4 (Sigma-Aldrich, USA; Cat #P3813) […]
MultiScreen HTS 96 Well Filter Plates (Millipore, Ireland; Cat # MSGVS2210) […]
Matrix Multichannel Electronic Pipette 2-125 µL, 5-250 µL, 15-1250 µL (Thermo Scientific, […]
Vacuum pump (Millipore, USA; Model # XX5500000)
The measurements were performed using SpectraMax Plus reader in UV-Vis mode. Acquisition and analysis of the data were performed using SoftMax Pro v.5.4 (Molecular Devices) and Excel […]
Kinetic solubility assay was performed according to the Enamine’s aqueous solubility SOP.
Briefly, using a 20 mM stock solution of the compound in 100% DMSO dilutions were prepared to a theoretical concentration of 400 μM in duplicates in phosphate-buffered saline pH 7.4 […]
for two hours and then filtered through HTS filter plates using a vacuum manifold. The filtrates of test compounds were diluted 2-fold with acetonitrile with 2% DMSO before measuring.
In parallel, compound dilutions in acetonitrile/PBS (1:1) were prepared to theoretical […]
DMSO to generate calibration curves. Ondansetron was used as reference compound to control proper assay performance. 200 μl of each sample was transferred to 96-well plate and measured in 200-550 nm range with 5 nm step.
The concentrations of compounds in PBS filtrate are calculated using a dedicated Microsoft Excel calculation script. Proper absorbance wavelengths for calculations are selected for each compound manually based on absorbance maximums (absolute absorbance unit values for the minimum and maximum concentration points within 0 – 3 OD range). Each of the final datasets is additionally visually evaluated by the operator and goodness of fit (R2) is calculated for each calibration curve. The effective range of this assay is approximately 2-400 μM and the […]

[5] = Metabolic stability in human liver microsomes; format: in vitro ADME; details: both sexes
Method: (§2) The data acquisition and system control was performed using Analyst 1.6.3 software from AB Sciex. Methods Microsomal incubations were carried out in 96-well plates in 5 aliquots of 30 μL each (one for each time point). […] In the control reactions the NADPH-cofactor system was substituted with phosphate buffer. […] Each reaction was performed in duplicates. Five time points over 40 minutes were analyzed. The reactions were stopped by adding 4 volumes of methanol containing internal standard to incubation aliquots, followed by protein sedimentation by centrifuging at 5500 rpm for 4 minutes. […]. Supernatants were analyzed using the HPLC system coupled with tandem mass spectrometer. […] In some cases, the last time point is excluded from the calculations to ensure acceptable logarithmic linearity of decay.

[6] = tested on: human liver microsomes; assay: Metabolic stability in human liver microsomes; format: in vitro ADME; details: human liver microsomes
Method: as §2

MIC ([1]; Fig. 4e): 0.031 mg ml^–1
MIC ([1]; Fusarium verticillioides, 48 h, Table S6, lowest concentration giving 50% of optical density relative to control, 26 °C, 48 h, read-out: MIC): 31 µg/mL (≈ 89.3 µM)
MIC ([2]; Fig. 4e): 31 µg/mL (≈ 89.3 µM)
MIC ([2]; Table S6, lowest concentration giving 50% of optical density relative to control, 26 °C, 48 h): 31 µg/mL (≈ 89.3 µM)
D (partition ratio), incubation 1 ([3]; Table S2, n-octanol/PBS pH 7.4, incubation 1): 4.87E+02
D (partition ratio), incubation 2 ([3]; Table S2, n-octanol/PBS pH 7.4, incubation 2): 3.16E+02
D (partition ratio), incubation 3 ([3]; Table S2, n-octanol/PBS pH 7.4, incubation 3): 6.11E+02
logD at 1 h ([3]; pH 7.4, LogD, pH 7.4 (mean)): 2.66
logD at 1 h ([3]; pH 7.4, LogD, pH 7.4, incubation 1): 2.69
logD at 1 h ([3]; pH 7.4, LogD, pH 7.4, incubation 2): 2.5
logD at 1 h ([3]; pH 7.4, LogD, pH 7.4, incubation 3): 2.79
logD at 1 h ([3]; pH 7.4, logD (7.4)): 3.5 ± 0.1
increase of solubility relative to boscalid ([4]; kinetic solubility, PBS pH 7.4): ~ 50%
solubility at 2 h ([4]; Table S1, incubation 1, read-out: PBS solubility, pH 7.4, Incubation 1): 17 µM (≈ 5.9 µg/mL)
solubility at 2 h ([4]; Table S1, incubation 2, read-out: PBS solubility, pH 7.4, Incubation 2): 18 µM (≈ 6.25 µg/mL)
solubility at 2 h ([4]; Table S1, mean of 2 incubations, 2 h, 2% DMSO, effective range approx. 2-400 μM, read-out: PBS solubility, pH 7.4, Mean): 17 µM (≈ 5.9 µg/mL)
solubility at 2 h ([4]; experimental kinetic solubility in phosphate-buffered saline at pH 7.4, Fig. 3, read-out: Solubility): 17 ± 0.3 µM (≈ 5.9 µg/mL)
remaining at […], 2 µM ([5]; human, liver microsomes, pH 7.4, human liver microsomes, 2 μM, 37 °C, with NADPH, 7 min): 94%
remaining at […], 2 µM ([5]; human, liver microsomes, pH 7.4, human liver microsomes, 2 μM, 37 °C, with NADPH, 15 min): 95%
remaining at 25 min, 2 µM ([5]; human, liver microsomes, pH 7.4, human liver microsomes, 2 μM, 37 °C, with NADPH, 25 min, read-out: % Remaining, Mean of 2): 90%
remaining at 40 min, 2 µM ([5]; human, liver microsomes, pH 7.4, human liver microsomes, 2 μM, 37 °C, with NADPH, read-out: % Remaining, Mean of 2): 80%
microsomal CLint at 2 µM ([5]; human, liver microsomes, pH 7.4, human liver microsomes, 0.42 mg protein per ml, Table S3, * approximate due to high stability, read-out: Clint): 12 µL/min/mg
half-life at 2 µM ([5]; human, liver microsomes, pH 7.4, human liver microsomes, * approximate due to high stability, read-out: t1/2): 2.31 h
remaining at 40 min, 2 µM ([5]; pH 7.4, human liver microsomes, no NADPH cofactor, ** instability partially or completely not determined by CYP450 activity, read-out: % Remaining without cofactor, Mean of 2): 71%
k el at 2 µM ([5]; pH 7.4, human liver microsomes, elimination constant, * approximate due to high stability, read-out: kel (converted)): 8.33e-05 s⁻¹
CIint, intrinsic clearance [6]: 12 µL/min/mg
Structure (SMILES): O=C(N[C@@H]1[C@@H]2CC[C@@]1(c1ccc(Cl)cc1)C2)c1cccnc1Cl (relative stereo) [Compound 30]
